From patent publication US8106055B2, “Substituted amide compounds” (Gruenenthal GmbH, priority 2007, dated 2012)

How the values were obtained:
[1] = biological target: T1, serotonin (5-HT) reuptake (Rattus norvegicus, UniProt P31652); assay: Inhibition of serotonin (5HT) reuptake in synaptosomes from rat brain; format: biochemical; details: for 5-HT (inhibition of reuptake of serotonin, % inhibition): test concentration of 10 μM; for inhibition at 10 µM: read-out: 5-HT reuptake
T1 construct: synaptosomes are freshly isolated from areas of the rat brain; from tissue; host or cells: rat brain synaptosomes (P2 fraction)
T1 sequence (P31652 whole entry): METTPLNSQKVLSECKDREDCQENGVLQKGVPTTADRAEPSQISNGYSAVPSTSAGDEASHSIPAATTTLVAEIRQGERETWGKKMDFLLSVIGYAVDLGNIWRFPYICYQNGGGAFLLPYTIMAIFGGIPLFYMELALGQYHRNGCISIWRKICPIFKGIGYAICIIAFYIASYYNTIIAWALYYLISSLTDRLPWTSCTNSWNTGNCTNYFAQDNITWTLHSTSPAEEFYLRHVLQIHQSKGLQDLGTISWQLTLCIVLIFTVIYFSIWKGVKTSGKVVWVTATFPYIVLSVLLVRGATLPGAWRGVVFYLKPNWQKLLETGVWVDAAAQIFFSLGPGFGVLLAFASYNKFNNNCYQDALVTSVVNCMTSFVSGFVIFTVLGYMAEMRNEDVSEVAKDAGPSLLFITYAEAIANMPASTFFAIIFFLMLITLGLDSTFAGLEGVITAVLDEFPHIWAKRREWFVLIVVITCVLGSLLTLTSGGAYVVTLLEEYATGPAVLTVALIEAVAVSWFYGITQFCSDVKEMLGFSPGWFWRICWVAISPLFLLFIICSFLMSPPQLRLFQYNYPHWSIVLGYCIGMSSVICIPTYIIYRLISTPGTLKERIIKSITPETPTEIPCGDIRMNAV
Method in brief: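 Freshly isolated rat brain synaptosomes (P2 fraction) used for 5-HT reuptake. Test compound at 10 μM, activity given as % inhibition.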

human μ opiate receptor = biological target: T2, human μ opiate receptor (Homo sapiens, UniProt P35372); assay: Affinity for the human μ opiate receptor ([3H]-naloxone displacement, CHO-K1 receptor membrane preparation, SPA); format: binding; details: for μ (binding on the μ opioid receptor, % inhibition): test concentration of 1 μM; for inhibition at 1 µM: 1.5 h, read-out: μ receptor
T2 construct: purchased PerkinElmer Life Sciences, Zaventem, Belgium RB-HOM; host or cells: CHO-K1 cells (membrane preparation)
T2 sequence (P35372 whole entry): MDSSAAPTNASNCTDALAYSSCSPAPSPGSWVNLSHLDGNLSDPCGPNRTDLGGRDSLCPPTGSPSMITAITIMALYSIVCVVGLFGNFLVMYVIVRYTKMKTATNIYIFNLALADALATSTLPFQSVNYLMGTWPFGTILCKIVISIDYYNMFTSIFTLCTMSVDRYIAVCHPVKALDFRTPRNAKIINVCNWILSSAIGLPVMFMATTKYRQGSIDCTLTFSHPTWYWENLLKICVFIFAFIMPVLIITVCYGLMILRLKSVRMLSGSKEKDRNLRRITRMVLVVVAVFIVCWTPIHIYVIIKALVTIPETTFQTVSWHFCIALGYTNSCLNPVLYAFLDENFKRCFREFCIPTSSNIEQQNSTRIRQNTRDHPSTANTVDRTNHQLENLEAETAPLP
Method in brief: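 Scintillation proximity binding on human μ receptor membranes from CHO-K1 cells used 1 nmol/l [3H]-naloxone over 90 min at room temperature in 50 mmol/l Tris-HCl, 0.06% BSA. Percent inhibition was recorded at 1 μM.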

[2] = Table 2, test concentration 10 μM
[3] = Table 2, test concentration 1 μM

Compound | 5-HT (inhibition of reuptake of serotonin, % inhibition) [1] | μ (binding on the μ opioid receptor, % inhibition) (human μ opiate receptor) | further results
CN(C)C(c1cccc(F)c1)C1CCC(NC(=O)COCCN(C)S(=O)(=O)c2ccc(Cl)cc2Cl)CC1 (stereo not drawn) [Example 217] | 85% | 89% | 
CCN(CCOCC(=O)NCCC1CCC(C(c2cccc(F)c2)N(C)C)CC1)S(=O)(=O)c1c(C)cc(OC)c(C)c1C (stereo not drawn) [Example 209] | 94% | 85% | 
CN(C)C(c1cccc(F)c1)C1CCC(CCNC(=O)COCCN(C)S(=O)(=O)c2ccc(OC(F)(F)F)cc2)CC1 (stereo not drawn) [Example 215] | 90% | 85% | 
Cc1ccc(S(=O)(=O)N(C)CCOCC(=O)NCC2CCC(C(c3cccc(F)c3)N(C)C)CC2)cc1 (stereo not drawn) [Example 227] | 86% | 77% | 
CN(C)C(c1cccc(F)c1)C1CCC(NC(=O)COCC2CCCN(S(=O)(=O)c3ccccc3)C2)CC1 (stereo not drawn) [Example 266] | 97% | 74% | 
CN(C)C(c1ccc(F)cc1)C1CCC(CCNC(=O)COC2CCCCC2N(C)S(=O)(=O)c2ccc(Cl)c(Cl)c2)CC1 (stereo not drawn) [Example 244] | 88% | 81% | 
COc1cc(C)c(S(=O)(=O)N2CCN(CCOCC(=O)NCC3CCC(C(c4cccc(F)c4)N(C)C)CC3)CC2)c(C)c1C (stereo not drawn) [Example 223] | 96% | 77% | 
CN(C)C(c1cccc(F)c1)C1CCC(CCNC(=O)COCC2CCCN2S(=O)(=O)c2ccc(Cl)c(Cl)c2)CC1 (stereo not drawn) [Example 202] | 98% | 85% | 
CN(C)C(c1ccccc1)C1CCC(NC(=O)COCCN(C)S(=O)(=O)c2c(Cl)cc(Cl)cc2Cl)C1 (stereo not drawn) [Example 615, N-[3-(dimethylaminophenylmethyl)-cyclopentyl]-2-{2-[(2,4,6-trichlorobenzenesulfonyl)-methylamino]-ethoxy}-acetamide] |  |  | inhibition at 10 µM [1, 2]: 81%; inhibition at 1 µM (human μ opiate receptor; [3]): 89%
COc1ccc(S(=O)(=O)N2CCC(OCC(=O)NCC3CCC(C(c4ccc(Cl)cc4)N(C)C)CC3)C2)cc1OC (stereo not drawn) [Example 260] | 88% | 76% | 
CN(C)C(c1cccc(F)c1)C1CCC(NC(=O)COC2CCN(S(=O)(=O)c3ccccc3)C2)CC1 (stereo not drawn) [Example 271] | 93% | 72% | 
CCN(CCOCC(=O)NCC1CCC(C(c2ccccc2)N(C)C)CC1)S(=O)(=O)c1c(C)cc(OC)c(C)c1C (stereo not drawn) [Example 231] | 83% | 82% | 
COc1cc(C)c(S(=O)(=O)N(C)CCOCC(=O)NCC2CCC(C(c3cccc(F)c3)N(C)C)CC2)c(C)c1 (stereo not drawn) [Example 248] | 90% | 81% | 
COc1cc(C)c(S(=O)(=O)N2CCC(OCC(=O)NC3CCC(C(c4cccc(F)c4)N(C)C)CC3)C2)c(C)c1 (stereo not drawn) [Example 251] | 98% | 77% | 
COc1ccc(S(=O)(=O)N2CCC(OCC(=O)NCCC3CCC(C(c4cccc(F)c4)N(C)C)CC3)C2)cc1OC (stereo not drawn) [Example 262] | 90% | 82% | 
CN(C)C(c1ccc(F)cc1)C1CCC(NC(=O)COC2CCCCC2N(C)S(=O)(=O)c2ccc(Cl)c(Cl)c2)CC1 (stereo not drawn) [Example 256] | 84% | 73% | 
CN(C)C(c1cccc(F)c1)C1CCC(NC(=O)COC2CCCN(S(=O)(=O)c3ccccc3)C2)CC1 (stereo not drawn) [Example 277] | 93% | 68% | 
CN(C)C(c1ccc(Cl)cc1)C1CCC(CCNC(=O)COCCN(C)S(=O)(=O)c2c(Cl)cccc2Cl)CC1 (stereo not drawn) [Example 274] | 81% | 68% | 
CN(C)C(c1ccccc1)C1CCC(NC(=O)COCC2CCCN2S(=O)(=O)c2c(Cl)cc(Cl)cc2Cl)CC1 (stereo not drawn) [Example 612, N-[4-(Dimethylaminophenylmethyl)-cyclohexyl]-2-[1-(2,4,6-trichlorobenzenesulfonyl)-pyrrolidin-2-ylmethoxy]-acetamide] |  |  | 5-HT reuptake [1, 2]: 84 % inhibition; μ receptor (human μ opiate receptor; [3]): 88 % inhibition
COc1ccc(S(=O)(=O)N2CCCCC2COCC(=O)NC2CCC(C(c3cccs3)N(C)C)CC2)cc1OC (stereo not drawn) [Example 261] | 85% | 72% | 
COc1cc(C)c(S(=O)(=O)N(C)CCOCC(=O)NC2CCC(C(c3ccccc3)N(C)C)CC2)c(C)c1 (stereo not drawn) [Example 239] | 78% | 38% | 
CN(C)C(c1cccc(F)c1)C1CCC(NC(=O)COCCN(C)S(=O)(=O)c2ccc(OC(F)(F)F)cc2)CC1 (stereo not drawn) [Example 246] | 91% | 76% | 
CN(C)C(c1cccs1)C1CCC(CCNC(=O)COC2CCN(S(=O)(=O)c3ccccc3)CC2)CC1 (stereo not drawn) [Example 230] | 94% | 82% | 
Cc1ccc(S(=O)(=O)N(C)CCOCC(=O)NC2CCC(C(c3cccs3)N(C)C)CC2)cc1 (stereo not drawn) [Example 168, N-(4-((dimethylamino) (thiophen-2-yl)methyl)cyclohexyl)-2-(2-(N,4-dimethylphenylsulfamido)ethoxy)acetamide] | 85% | 83% | 
CN(C)C(c1cccc(F)c1)C1CCC(CNC(=O)COC2CCN(S(=O)(=O)c3ccc(Cl)cc3Cl)C2)CC1 (stereo not drawn) [Example 225] | 85% | 83% | 
Cc1cc(C)c(S(=O)(=O)N2CCC(OCC(=O)NCCC3CCC(C(c4cccc(F)c4)N(C)C)CC3)C2)c(C)c1 (stereo not drawn) [Example 264] | 82% | 77% | 
CN(C)C(c1ccccc1)C1CCC(NC(=O)COC2CCCN(S(=O)(=O)c3c(Cl)cc(Cl)cc3Cl)C2)CC1 (stereo not drawn) [Example 608, N-[4-(dimethylaminophenylmethyl)-cyclohexyl]-2-[1-(2,4,6-trichlorobenzenesulfonyl)-piperidin-3-yloxy]-acetamide] |  |  | inhibition at 10 µM [1, 2]: 81%; inhibition at 1 µM (human μ opiate receptor; [3]): 89%
